Measurements taken from patent US20230002361A1, “2H-INDAZOLE DERIVATIVES AND THEIR USE IN THE TREATMENT OF DISEASE” (BIOGEN MA INC., priority 2019, published 2023).
Structures can show the parent of a compound that is named as a salt. Where two headings read alike, the source gives them in different places.

Tests used:
[1] = molecular target: T1, IRAK4 (Homo sapiens, UniProt Q9NWZ3); experiment: IRAK4 MSD Biochemical Assay (1 mM ATP, 2 h); conditions: room temperature
T1 construct: with 0.1 nM IRAK4, 1.6 μM of biotinylated peptide substrate and 10 μM ATP
T1 sequence (Q9NWZ3 1-460): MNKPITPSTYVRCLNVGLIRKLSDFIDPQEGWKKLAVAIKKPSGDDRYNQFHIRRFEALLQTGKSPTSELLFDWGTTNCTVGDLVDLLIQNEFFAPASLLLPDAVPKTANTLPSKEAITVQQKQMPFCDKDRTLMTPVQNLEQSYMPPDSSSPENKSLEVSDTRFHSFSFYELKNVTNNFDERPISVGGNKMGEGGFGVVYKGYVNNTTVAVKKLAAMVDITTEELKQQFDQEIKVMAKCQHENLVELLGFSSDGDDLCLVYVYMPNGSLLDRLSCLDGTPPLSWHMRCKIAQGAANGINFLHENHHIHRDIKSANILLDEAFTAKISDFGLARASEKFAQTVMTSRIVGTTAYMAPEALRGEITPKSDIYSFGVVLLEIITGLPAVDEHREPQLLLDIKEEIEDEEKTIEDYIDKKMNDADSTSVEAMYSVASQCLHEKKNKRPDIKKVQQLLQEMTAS
Procedure, shortened: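 Run with 1 mM ATP and […] for 2 h, then quenched with EDTA, pH 8. The phosphorylated biotinylated peptide was captured on streptavidin plates and detected with anti-phospho-threonine antibody plus Sulfo-Tag secondary by MSD electrochemiluminescence.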

[2] = molecular target: T2, MDR1 (P-gp) (Homo sapiens, UniProt P08183); experiment: MDR1-MDCK assay (efflux ratio); assay type: in vitro ADME; conditions: human, MDCK-MDR1, 1 μM compound, 120 minutes incubation; read-out: MDR1-MDCK Efflux Ratio; (B-A/A-B)
T2 construct: host or cells: MDCK cells
T2 sequence (P08183 whole entry): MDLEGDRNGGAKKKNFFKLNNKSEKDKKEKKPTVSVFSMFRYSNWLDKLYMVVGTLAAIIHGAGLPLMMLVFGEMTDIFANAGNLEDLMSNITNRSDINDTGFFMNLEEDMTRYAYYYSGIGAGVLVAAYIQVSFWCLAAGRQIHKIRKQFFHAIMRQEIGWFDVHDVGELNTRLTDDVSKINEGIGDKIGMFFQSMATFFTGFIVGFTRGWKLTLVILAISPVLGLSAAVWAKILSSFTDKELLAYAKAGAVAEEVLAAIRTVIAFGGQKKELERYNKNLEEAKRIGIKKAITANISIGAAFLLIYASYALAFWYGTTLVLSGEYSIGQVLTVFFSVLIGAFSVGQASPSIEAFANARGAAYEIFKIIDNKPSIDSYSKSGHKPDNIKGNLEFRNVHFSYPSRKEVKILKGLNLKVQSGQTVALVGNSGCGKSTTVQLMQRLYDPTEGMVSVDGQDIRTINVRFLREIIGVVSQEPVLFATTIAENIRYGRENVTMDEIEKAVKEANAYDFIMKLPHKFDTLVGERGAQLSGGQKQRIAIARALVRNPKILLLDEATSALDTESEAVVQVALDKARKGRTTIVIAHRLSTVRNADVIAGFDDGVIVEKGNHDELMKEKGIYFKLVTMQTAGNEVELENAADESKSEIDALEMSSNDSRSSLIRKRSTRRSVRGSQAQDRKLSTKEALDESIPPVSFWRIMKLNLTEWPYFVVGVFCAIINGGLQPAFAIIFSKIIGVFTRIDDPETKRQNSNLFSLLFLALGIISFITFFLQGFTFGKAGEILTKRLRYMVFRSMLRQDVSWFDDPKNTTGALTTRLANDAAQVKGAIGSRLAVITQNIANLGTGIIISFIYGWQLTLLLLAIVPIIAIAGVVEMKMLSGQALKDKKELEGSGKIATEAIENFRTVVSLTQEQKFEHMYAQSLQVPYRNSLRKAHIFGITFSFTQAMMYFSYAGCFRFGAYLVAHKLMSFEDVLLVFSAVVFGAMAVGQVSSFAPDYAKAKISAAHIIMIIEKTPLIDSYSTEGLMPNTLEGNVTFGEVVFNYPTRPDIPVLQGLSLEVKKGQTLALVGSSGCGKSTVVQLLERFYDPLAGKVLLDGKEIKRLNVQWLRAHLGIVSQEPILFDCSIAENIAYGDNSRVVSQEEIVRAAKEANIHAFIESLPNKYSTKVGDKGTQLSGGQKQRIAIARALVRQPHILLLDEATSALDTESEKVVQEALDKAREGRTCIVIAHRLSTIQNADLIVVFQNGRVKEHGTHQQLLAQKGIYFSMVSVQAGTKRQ
Procedure, shortened: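 Human MDR1-transfected MDCK monolayers, cultured 7 days on transwell inserts with TEER checked, were dosed with compound at 1 μM in HBSS-HEPES. Transport was measured in both A-B and B-A directions. Efflux ratio came from the directional permeabilities, with mass balance also calculated.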

[3] = read-out: IRAK4 MSD Biochemical Assay (1 mM ATP, 2 h) IC50

Structure (SMILES) | IC50 [1, 3] | efflux ratio at 120 min, 1 μM [2] | IC50 ([1]; IRAK4 MSD Biochemical Assay (1 mM ATP, 2 h) IC50 (nM))
CC(C)Oc1cc2nn(C34CCC(C)(CC3)OC4)cc2cc1C(=O)Nc1cccn(C)c1=O [Example 58, 6-Isopropoxy-N-(1-methyl-2-oxo-1,2-dihydropyridin-3-yl)-2-(1-methyl-2-oxabicyclo[2.2.2]octan-4-yl)-2H-indazole-5-carboxamide Trifluoroacetate] | 0.4 nM | 0.9 | –
COCCC(C)n1cc2cc(C(=O)Nc3cccc(C(F)F)n3)c(OC(C)C)cc2n1.Cl (stereo not shown) [Example 59, N-(6-(difluoromethyl)pyridin-2-yl)-6-isopropoxy-2-(4-methoxybutan-2-yl)-2H-indazole-5-carboxamide hydrochloride] | 1 nM | 0.4 | –
COCCCn1cc2cc(C(=O)Nc3cccc(C(F)(F)F)n3)c(OC(C)C)nc2n1.Cl [Example 60, 6-Isopropxy-2-(3-methoxypropyl)-N-(6-(trifluoromethyl)pyridin-2-yl)-2H-pyrazolo[3,4-b]pyridine-5-carboxamide hydrochloride] | 2.2 nM | 1.5 | –
COCCCn1cc2cc(C(=O)Nc3cccc(OC)n3)c(OC(C)C)nc2n1.Cl [Example 61, 6-Isopropoxy-2-(3-methoxypropyl)-N-(6-methoxypyridin-2-yl)-2H-pyrazolo[3,4-b]pyridine-5-carboxamide hydrochloride] | 3.7 nM | 1.1 | –
COCCCn1cc2cc(C(=O)Nc3cccc(C(F)F)n3)c(OC(C)C)nc2n1.Cl [Example 62, N-(6-(difluoromethyl)pyridin-2-yl)-6-isopropoxy-2-(3-methoxsypropyl)-2H-pyrazolo[3,4-b]pyridine-5-carboxamide hydrochloride] | 0.6 nM | 1.7 | –
CC(C)Oc1nc2nn(C3CCOCC3)cc2cc1C(=O)Nc1cccc(C(F)F)n1 [Example 63, N-(6-(difluoromethyl)pyridin-2-yl)-6-isopropoxy-2-(tetrahydro-2H-pyran-4-yl)-2H-pyrazolo[3,4-b]pyridine-5-carboxamide] | 0.3 nM | 1 | –
COc1cccc(NC(=O)c2cc3cn(C4CCOCC4)nc3cc2OC(C)C)n1 [Example 66, 6-Isopropoxy-N-(6-methoxypyridin-2-yl)-2-(tetrahydro-2H-pyran-4-yl)-2H-indazole-5-carboxamide] | 1.4 nM | 0.9 | –
CC(C)Oc1cc2nn(C3CCOCC3)cc2cc1C(=O)Nc1ccn(C)n1 [Example 67, 6-Isopropoxy-N-(1-methyl-1H-pyrazol-3-yl)-2-(tetrahydro-2H-pyran-4-yl)-2H-indazole-5-carboxamide] | 9.5 nM | 4.6 | –
Cc1cccc(NC(=O)c2cc3cn(C4CCOCC4)nc3cc2OC(C)C)c1F [Example 68, N-(2-fluoro-3-methylphenyl)-6-isopropoxy-2-(tetrahydro-2H-pyran-4-yl)-2H-indazole-5-carboxamide] | 2 nM | 1.4 | –
COc1ncccc1NC(=O)c1cc2cn(C3CCOCC3)nc2cc1OC(C)C [Example 69, 6-Isopropoxy-N-(2-methoxypyridin-3-yl)-2-(tetrahydro-2H-pyran-4-yl)-2H-indazole-5-carboxamide] | 1 nM | 1 | –
CC(C)Oc1cc2nn(C3CCOCC3)cc2cc1C(=O)Nc1cccnc1OC(F)F.Cl [Example 70, N-(2-(difluoromethoxy)pyridin-3-yl)-6-isopropoxy-2-(tetrahydro-2H-pyran-4-yl)-2H-indazole-5-carboxamide hydrochloride] | 8.7 nM | 1.1 | –
CC(C)Oc1cc2nn(C3CCOCC3)cc2cc1C(=O)Nc1cccn2nccc12.Cl [Example 71, 6-Isopropoxy-N-(pyrazolo[1,5-a]pyridin-4-yl)-2-(tetrahydro-2H-pyran-4-yl)-2H-indazole-5-carboxamide hydrochloride] | 6.6 nM | 1.6 | –
CC(C)Oc1cc2nn(C3CCOCC3)cc2cc1C(=O)Nc1cnn2cccnc12 [Example 72, 6-Isopropoxy-N-(pyrazolo[1,5-a]pyrimidin-3-yl)-2-(tetrahydro-2H-pyran-4-yl)-2H-indazole-5-carboxamide] | 0.8 nM | 2.1 | –
CC(C)Oc1cc2nn(C3CCOCC3)cc2cc1C(=O)Nc1cccc2c1OCC2.Cl [Example 73, N-(2,3-dihydrobenzofuran-7-yl)-6-isopropoxy-2-(tetrahydro-2H-pyran-4-yl)-2H-indazole-5-carboxamide hydrochloride] | 1.8 nM | 0.7 | –
CO[C@H]1C[C@H](n2cc3cc(C(=O)Nc4cccc(C(F)F)n4)c(OC(C)C)cc3n2)C1 [Example 74, N-(6-(difluoromethyl)pyridin-2-yl)-6-isopropoxy-2-((1R,3R)-3-methoxycyclobutyl)-2H-indazole-5-carboxamide] | 0.4 nM | 0.5 | –
O=C(Nc1cccc(C(F)F)n1)c1cc2cn(C3CCOCC3)nc2cc1OC1CCOC1 (stereo not shown) [Example 75, N-(6-(difluoromethyl)pyridin-2-yl)-2-(tetrahydro-2H-pyran-4-yl)-6-((tetrahydrofuran-3-yl)oxy)-2H-indazole-5-carboxamide] | 1.1 nM | 2.9 | –
CC(C)Oc1nc2nn(CC3CCOC3)cc2cc1C(=O)Nc1ccccn1 (stereo not shown) [Example 77, 6-Isopropoxy-N-(pyridin-2-yl)-2-((tetrahydrofuran-3-yl)methyl)-2H-pyrazolo[3,4-b]pyridine-5-carboxamide] | 13.6 nM | 1.9 | –
COc1ncccc1NC(=O)c1cc2cn(CC3CCOC3)nc2nc1OC(C)C (stereo not shown) [Example 78, 6-Isopropoxy-N-(2-methoxypyridin-3-yl)-2-((tetrahydrofuran-3-yl)methyl)-2H-pyrazolo[3,4-b]pyridine-5-carboxamide] | 1.2 nM | 1.4 | –
CC(C)Oc1nc2nn(CC3CCOC3)cc2cc1C(=O)Nc1ccn(C)n1 (stereo not shown) [Example 79, 6-Isopropoxy-N-(1-methyl-1H-pyrazol-3-yl)-2-((tetrahydrofuran-3-yl)methyl)-2H-pyrazolo[3,4-b]pyridine-5-carboxamide] | 10.6 nM | 9.4 | –
CC(C)Oc1nc2nn(CC3CCOC3)cc2cc1C(=O)Nc1ccn(C(F)F)n1 (stereo not shown) [Example 80, N-(1-(difluoromethyl)-1H-pyrazol-3-yl)-6-isopropoxy-2-((tetrahydrofuran-3-yl)methyl)-2H-pyrazolo[3,4-b]pyridine-5-carboxamide] | 6.4 nM | 3.1 | –
CC(C)Oc1nc2nn(CC3CCOC3)cc2cc1C(=O)Nc1cc(F)cn(C)c1=O (stereo not shown) [Example 81, N-(5-fluoro-1-methyl-2-oxo-1,2-dihydroxypyridin-3-yl)-6-isopropxy-2-((tetrahydrofuran-3-yl)methyl)-2H-pyrazolo[3,4-b]pyridine-5-carboxamide] | 9.9 nM | 5.9 | –
CC(C)Oc1nc2nn(C3CCOCC3)cc2cc1C(=O)Nc1cnn2cccnc12 [Example 82, 6-Isopropoxy-N-(pyrazolo[1,5-a]pyrimidin-3-yl)-2-(tetrahydro-2H-pyran-4-yl)-2H-pyrazolo[3,4-b]pyridine-5-carboxamide] | 1.2 nM | 2.6 | –
Cn1cccc(NC(=O)c2cc3cn(C45COC(C)(C4)C5)nc3cc2OC2CCC2)c1=O [Example 83, 6-Cyclobutoxy-N-(1-methyl-2-oxo-1,2-dihydropyridin-3-yl)-2-(1-methyl-2-oxabicyclo[2.1.1]hexan-4-yl)-2H-indazole-5-carboxamide trifluoroacetate] | 1.4 nM | 1.2 | –
CC12CC(n3cc4cc(C(=O)Nc5cccn(C(F)F)c5=O)c(OC5CCC5)cc4n3)(CO1)C2 [Example 84, 6-Cyclobutoxy-N-(1-(difluoromethyl)-2-oxo-1,2-dihydropyridin-3-yl)-2-(1-methyl-2-oxabicyclo[2.1.1]hexan-4-yl)-2H-indazole-5-carboxamide trifluoroacetate] | 0.5 nM | 0.9 | –
CCOc1cc2nn(C34COC(C)(C3)C4)cc2cc1C(=O)Nc1cccn(C)c1=O [Example 86, 6-Ethoxy-N-(1-methyl-2-oxo-1,2-dihydropyridin-3-yl)-2-(1-methyl-2-oxabicyclo[2.1.1]hexan-4-yl)-2H-indazole-5-carboxamide tfifluoroacetate] | – | 1.8 | 3.7 nM
COc1cc2nn(C34COC(C)(C3)C4)cc2cc1C(=O)Nc1cccc(C(F)F)n1 [Example 87, N-(6-(difluoromethyl)pyridin-2-yl)-6-methoxy-2-(1-methyl-2-oxabicyclo[2.1.1]hexan-4-yl)-2H-indazole-5-carboxamide trifluoroacetate] | 2.4 nM | 0.7 | –
